{
  "source": "patent US20130123201A1",
  "about": "“MODULATION OF CYTOKINE-INDUCED CHRONIC INFLAMMATORY RESPONSES” (UNIVERSITY OF MANITOBA, priority 2010, published 2013)",
  "format_in_all_cases": "cell-based",
  "key": {"[1]": {"test_system": "Human fibroblast-like synovial (FLS) cells", "experiment": "qRT-PCR of cytokine-induced gene expression in FLS cells", "details": "some of the responses", "experimental": "Cell culture and isolation: Human fibroblast-like synovial (FLS) cells were isolated from synovial tissues obtained from patients […]. Briefly, the tissues were digested with 1 mg/ml collagenase and 0.05 mg/ml hyaluronidase (both obtained from Sigma; Oakville, ON, Canada) in Hanks' balanced salt solution (Gibco) for 1-2 hours at 37° C. The cells were cultured in DMEM media (Gibco) supplemented with sodium pyruvate and non-essential amino acids (referred to as complete DMEM media henceforth), containing […] in a humidified incubator at 37° C. and 10% CO2. […] Cellular cytotoxicity was evaluated after 24 hr stimulation with the various stimulants used in this study by monitoring the release of lactate dehydrogenase (LDH) employing a colorimetric detection kit (Roche Diagnostics, Laval, QC, Canada).\nQuantitative real-time PCR (qRT-PCR): Human FLS or monocytic THP-1 cells were stimulated with indicated stimulants for 4 hr. RNA was isolated and analyzed for gene expression by qRT-PCR using SuperScript III Platinum Two-Step qRT-PCR Kit with SYBR Green (Invitrogen), according to the manufacturer's instructions, in the ABI PRISM 7000 sequence detection system (Applied Biosystems). Fold changes were calculated using the comparative Ct method, after normalization using 18S rRNA primers. […]"}, "[2]": {"test_system": "Human macrophage-like THP-1 cells", "experiment": "qRT-PCR of cytokine-induced gene expression in THP-1 cells", "experimental": "(§1) Quantitative real-time PCR (qRT-PCR): Human FLS or monocytic THP-1 cells were stimulated with indicated stimulants for 4 hr. RNA was isolated and analyzed for gene expression by qRT-PCR using SuperScript III Platinum Two-Step qRT-PCR Kit with SYBR Green (Invitrogen), according to the manufacturer's instructions, in the ABI PRISM 7000 sequence detection system (Applied Biosystems). Fold changes were calculated using the comparative Ct method, after normalization using 18S rRNA primers.\nas §1, with “macrophage-like” for “monocytic”"}, "[3]": {"test_system": "Human macrophage-like THP-1 cells", "experiment": "ELISA of cytokine/chemokine production in THP-1 tissue culture supernatants", "experimental": "ELISA immunoassay: Tissue culture supernatants were centrifuged at 1500× g for 5-7 min to obtain cell-free samples and the aliquots were stored at −20° C. until further use. Production of chemokine Gro-α was monitored in the tissue culture supernatants by ELISA employing human Gro-α DuoSet (R&D Systems Inc.) as per the manufacturer's instructions. Production of cytokine TNF-α was monitored in the tissue culture supernatants using specific antibody pairs from eBioscience, Inc., and production of IL-8 was monitored using specific antibody pairs from R&D Systems, Inc., as per the manufacturer's instructions. The concentration of the cytokines or chemokines in the tissue culture supernatants was evaluated by establishing a standard curve with serial dilutions of the recombinant human cytokines or chemokines as required.\nELISA immunoassay: Tissue culture supernatants were centrifuged at 1500× g for 5-7 min to obtain cell-free samples and the aliquots were stored at −20° C. until further use. Production of chemokine Gro-α was monitored in the tissue culture supernatants by ELISA employing human Gro-α DuoSet (R&D Systems Inc.) per the manufacturer's instructions. Production of cytokine TNF-α was monitored in the tissue culture supernatants using specific antibody pairs from eBioscience, Inc., and production of IL-8 was monitored using specific antibody pairs from R&D Systems, Inc., per the manufacturers' instructions. The concentrations of the cytokines or chemokines in the tissue culture supernatants were evaluated by establishing a standard curve with serial dilutions of the recombinant human cytokines or chemokines as required.\nImpact of cationic peptide LL-37 and its synthetic derivatives on IL-32-induced protein production: Human macrophage-like THP-1 cells were stimulated with IL-32 (20 ng/mL) in the presence and absence of cationic peptide LL-37, tissues culture supernatants were monitored for the production of pro-inflammatory cytokines TNF-α and IL-1β, and chemokines after 24 hr of stimulation. […] As LL-37 suppressed IL-32-mediated pro-inflammatory responses, we also evaluated the impact of LL-37 derived synthetic peptides. […] No studies to data have explored the impact of these peptides in the context of chronic inflammation. […] This provides the data that supports further investigation of these peptide candidates as potential therapeutics for diseases characterized by chronic inflammation."}, "human PBMC": {"test_system": "human PBMC", "experiment": "ELISA of IL-32-induced TNF-α and IL-1β production in PBMC (ex-vivo)", "excerpt": "In order to confirm these activities in a physiologically relevant system, we evaluated the impact of the peptide in an ex-vivo assay using human PBMC, because cells recruited from the circulation are a major component of inflammatory infiltrates. Venous blood was collected from healthy volunteers with informed consent in accordance to a protocol approved by the Institutional Review Board at the University of Manitoba. PBMC was isolated from blood following the teaching of Mookherjee et al. (2009, Systems biology evaluation of immune responses induced by human host defence peptide LL-37 in mononuclear cells. Mol. Biosyst. 5:483-496). PBMC were stimulated with chronic inflammatory cytokine IL-32 (20 ng/ml) in the presence and absence of 5 μM of peptides, LL-37 and its derivatives (Table 7) for 24 hr. The tissue culture supernatants were monitored for the production of pro-inflammatory cytokines TNF-α and IL-1β by ELISA. […] Results shown are an average of four independent biological experiments performed with cells isolated from blood of four different donors ±standard error."}, "[4]": {"test_system": "Human macrophage-like THP-1 cells", "experiment": "ELISA of cytokine/chemokine production in THP-1 tissue culture supernatants", "details": "both monocytic THP-1 and human FLS cells, data not shown"}, "[5]": {"details": "THP-1 cells, in the presence of the peptide"}, "[6]": {"details": "THP-1 cells, in the presence of the peptide, p<0.01"}, "[7]": {"details": "macrophage-like THP-1 cells, IL-32 20 ng/mL, 24 hr"}},
  "data": [
    {"substance": "LL-37: Human cathelicidin cationic host defence peptide, SEQ ID NO: 21, LLGDFFRKSKEKIGKEFKRIVQRIKDFLRNLVPRTES", "values": [
      {"measurement": "Effect on IL-17-induced transcriptional responses", "setting": "[1]", "result": "significantly enhanced"},
      {"measurement": "Suppression of IL-32-induced IL-8 (CXCL8) expression", "setting": "[2]; [5]", "result": "30-40%"},
      {"measurement": "Suppression of IL-32-induced IL-23 expression", "setting": "[2]; [5]", "result": "30-40%"},
      {"measurement": "Suppression of IL-32-induced NF-κB1A expression", "setting": "[2]; [5]", "result": "30-40%"},
      {"measurement": "Suppression of IL-32-induced Gro-α (CXCL1) gene expression", "setting": "[2]; [6]", "result": "> 50", "unit": "%"},
      {"measurement": "Suppression of IL-32-induced IL-6 gene expression", "setting": "[2]; [6]", "result": "> 50", "unit": "%"},
      {"measurement": "Suppression of IL-32-induced TNF-α gene expression", "setting": "[2]; [6]", "result": "> 50", "unit": "%"},
      {"measurement": "Effect on IL-17-induced expression of pro-inflammatory genes or chemokine genes", "setting": "[2]; human monocytic cells / macrophages, data not shown", "result": "not altered"},
      {"measurement": "Suppression of IL-32-induced TNF-α production", "setting": "[3]; THP-1 monocytic cells, ELISA after 24 or 48 hr", "result": "> 30", "unit": "%"},
      {"measurement": "Suppression of IL-32-induced chemokine Gro-α production", "setting": "[3]; THP-1 monocytic cells, ELISA after 24 or 48 hr, p<0.05", "result": "12±4", "unit": "%"},
      {"measurement": "Effect on IL-32-induced IL-1β production", "setting": "[3]; [7]", "result": "significantly suppressed"},
      {"measurement": "Effect on IL-32-induced TNF-α production", "setting": "[3]; [7]", "result": "significantly suppressed"},
      {"measurement": "Effect on IL-32-induced chemokine production (IL-8, GROα)", "setting": "[3]; [7]", "result": "not altered"},
      {"measurement": "Effect on IL-32-induced IL-1β production", "setting": "human PBMC; human PBMC, IL-32 20 ng/ml, 5 μM peptide, 24 hr", "result": "neutralized"},
      {"measurement": "Effect on IL-32-induced TNF-α production", "setting": "human PBMC; human PBMC, IL-32 20 ng/ml, 5 μM peptide, 24 hr, p<0.05", "result": "neutralized"},
      {"measurement": "Effect on IL-32 induced pro-inflammatory protein production (FIG. 21 legend)", "setting": "human PBMC; peripheral blood mononuclear cells", "result": "suppression"},
      {"measurement": "Effect on IL-17-induced chemokine production", "setting": "[4]", "result": "not significantly altered (or modestly enhanced)"}
    ]}
  ]
}
